From patent US20100311805A1, “COMBINATION OF HISTONE DEACETYLASE INHIBITORS AND RADIATION” (NOVARTIS AG, priority 2005, published 2010)

Assays:
[1] = system: H460 cells; assay: Tumor growth delay in H460 xenograft tumor model; type: in vivo, nude mice; details: 10-fold increase in tumor volume as reference
Description: Tumor Volume Assessment. LLC, H450 and H23 cells are implanted into C57BL6 and nude mice, respectively. 106 viable cells suspended in 0.1 mL of cell medium are injected s.c. into the hind-limb. Each group of mice are comprised of 12 mice which are stratified into two groups to create approximately the same mean tumor volume. The mean volume of the tumors in mice at the time of treatment (day 0) with radiation, control, irradiated, LBH589 alone and LBH589 given prior to radiation are approximately 200 mm^3. Irradiated mice are immobilized with 140 μL of ketamine, and the entire body are shielded with lead, except for the tumor-bearing hind limb. A total dose of 21 Gy are administered in seven fractionated doses on days 0-4, 7 and 8. The LBH589 group receive of LBH589 administered p.o. via esophageal injection on days-1 and 6.
Tumor volumes were measured on days 0, 2, 4, 7, 9, 11, 14, 16, 18, 20 and 22 using skin calipers. Tumor volumes were calculated from a formula (a×b×c/2) that are derived from the formula for an ellipsoid (πd3/6). Data were calculated as the percentage of original (day 0) tumor volume and graphed as fractional tumor volume±SD for each treatment group. […]
H460 cells were injected in the hind limb of nude mice and allowed to grow for one week. […] B, shown is the mean tumor growth delay and standard error calculated using a 10-fold increase in tumor volume as reference.

[2] = system: γ-H2AX foci; assay: γ-H2AX foci immunostaining, H460; type: cell-based, human
[3] = system: H460 cell line; assay: Nuclear morphology (pyknotic nuclei) by DAPI staining, H460; type: cell-based, human
Description: (§1) To confirm the ability of LBH589 to sensitize human lung cancer cell lines to radiation induced apoptosis, nuclear morphology studies were performed. […] DAPI staining of cells treated with LBH589 and IR. Cells were subcultured onto slides and treated with 25 nM LBH589 for 18 hours followed by 3 Gy. Eighteen (18) hours later cells were fixed and stained with DAPI. Shown is the percentage of pyknotic nuclei and standard error (n=3) determined by manual counts from microscopy. *P<0.05 compared to control.

[4] = system: H23 cell line; assay: Nuclear morphology (pyknotic nuclei) by DAPI staining, H23; type: cell-based, human
Description: as §1

[5] = system: HDAC4; assay: HDAC4 immunostaining (compartmentalization), H460; type: cell-based, human
Description: (§2) Immunostaining of HDAC4 was performed on H23 and H460 cell lines to identify the effect of LBH589 on HDAC4 compartmentalization. […] When H460 cells were treated with 3 Gy, HDAC4 localized to the nucleus at 2 hours and minimal HDAC4 was present in the cytoplasm.

[6] = system: HDAC4; assay: HDAC4 immunostaining (compartmentalization), H23; type: cell-based, human; details: LBH589 added prior to IR
Description: as §2

[7] = system: cleaved caspase3; assay: Western immunoblot for cleaved caspase3, H23 whole cell lysates; type: cell-based, human
Description: (§3) Western Immunoblots. LLC, H450 and H23 cells are serum starved overnight in DMEM/F-12 media (Gibco). Cells are then treated with 10 μM of Compound III for 1 hour and/or irradiated with 3 Gy. Cells are washed twice with PBS and lysis buffer ([…] Tris, 150 mM NaCl, 1 mM EDTA, 1% Triton X-100, 2.5 mM Na PP, 1 mM phenylmethylsulfonyl fluoride, and 1 μg/mL leupeptin) are added. Protein concentration are quantified by the Bio-Rad method. Twenty (20) μg of total protein are loaded into each well and separated by 7% or 10% SDS-PAGE gel, depending on the size of the target protein being investigated. The proteins are transferred onto nitrocellulose membranes (Hybond ECL; Amersham, Arlington Heights, Ill.) and probed with primary antibodies to caspase3, cleaved caspase3, phospho-Akt, Akt, PDGFR α and β (Cell Signaling; 1:1000). Blots are washed and probed with goat anti-rabbit secondary antibody (Sigma; 1:1000). Cleavage of caspase 3 was analyzed to verify the role of apoptosis in cells treated with LBH589 and radiation. Western blot analysis was performed on H23 and H460 whole cell lysates. […] LBH589 induced caspase3 cleavage. H23 and H460 cells were treated with 25 nM LBH589 for 18 hours then irradiated with 3 Gy. Six hours later, protein was extracted, quantified, run in a 12% SDS-polyacrylamide gel, transferred, and probed with antibodies to cleaved caspase3 and actin. […]

[8] = system: γ-H2AX foci; assay: γ-H2AX foci immunostaining, H23; type: cell-based, human
Description: LBH589 prolongs the duration of radiation induced γ-H2AX foci. Immunostaining was performed to study γ-H2AX foci present at DNA double strand breaks. […] The red staining of γ-H2AX foci and blue staining of the DAPI counterstain are shown. 3 Gy induced γ-H2AX foci as early as 30 minutes following treatment. These foci disappeared by 6 hrs in cell lines treated with IR alone. […] In comparison, LBH589 added 18 hours prior to IR prolonged the duration of γ-H2AX foci for up to 24 hours after IR (42 hours after LBH589 administration). […] LBH589 prolongs duration of γ-H2AX foci in irradiated lung cancer cells. H23 cell line received the indicated treatment of 25 nM LBH589 and/or 3 Gy. Anti-γ-H2AX antibody was used for immunostaining with rhodamine red labeled secondary antibody (red). Cells were counterstained with DAPI (blue). Shown are representative photographs of the H23 cells line (A) at the indicated time points after IR. Arrows point to apoptotic cells. B, shown is the mean and standard error of cells with γ-H2AX nuclear foci. *P<0.05 compared to control.

[9] = system: H460 cell line; assay: Annexin V-FITC/PI flow cytometry analysis of apoptosis, H460; type: cell-based, human
Description: (§4) LBH589 enhances radiation induced apoptosis. To study the effect of HDAC inhibition by LBH589 on apoptosis three in vitro experiments were performed. FIG. 2 show results from Annexin V-FITC/PI flow cytometry analysis of apoptosis. H23 and H460 cells lines were treated with 25 nM LBH589 for 18 hrs then irradiated with 3 Gy. Twenty (20) hours later, cells were harvested, stained with Annexin-FITC and PI, and analyzed by flow cytometry. Shown is the number of apoptotic cells and standard error (n=3) for each treatment condition. *P<0.05 compared to control.

[10] = system: H460 cell lines; assay: Clonogenic analysis of H460 cell lines with LBH589 and 0-6 Gy; type: cell-based, human
Description: Results. LBH589 sensitizes NSCLC to the cytotoxic effects of ionizing radiation. Clonogenic analysis of H460 cell lines was performed using LBH589 and 0-6 Gy. […] Cells were suspended, counted with a hemocytometer, and plated at specific cell densities. Once attached, cells were treated with LBH589 for 1 hour or 18 hours followed by 0, 2, 4, or 6 Gy. Media was changed after IR and the cells were allowed to proliferate for 10 days. Shown is the average and standard error of the relative fractions of colonies (n=3).

[11] = mouse, in vivo
Description: LBH589 enhances tumor growth delay in vivo. H460 cells were injected into the hind limb of mice. After tumor formation the mice were treated with two oral doses of 40 mg LBH589 and/or five 3 Gy fractions over seven days. […] IR alone delayed growth by approximately 4 days (P<0.001).

[12] = system: H23 cell line; assay: Annexin V-FITC/PI flow cytometry analysis of apoptosis, H23; type: cell-based, human
Description: as §4

[13] = system: cleaved caspase3; assay: Western immunoblot for cleaved caspase3, H460 whole cell lysates; type: cell-based, human
Description: as §3

[14] = 25 nM LBH589 18 hours prior to 3 Gy, 18 hours later
[15] = 25 nM LBH589 18 hours prior to IR 3 Gy, 6 hours later

Cc1[nH]c2ccccc2c1CCNCc1ccc(/C=C/C(=O)NO)cc1 [LBH589, N-hydroxy-3-[4-[[[2-(2-methyl-1H-indol-3-yl)-ethyl]-amino]methyl]phenyl]-2E-2-propenamide]
tumor growth delay ([1]; LBH589 alone, two oral doses of 40 mg over seven days): two
tumor growth delay ([1]; combined: two oral doses of 40 mg LBH589 and five 3 Gy fractions over seven days): approximately 20 days
cells with γ-H2AX nuclear foci at 24 hours ([2]; 25 nM LBH589 alone): < 5%
residual γ-H2AX foci at 24 hours ([2]; 25 nM LBH589 prior to IR 3 Gy): 60%
percentage of pyknotic nuclei [3, 14]: over 10%
apoptotic nuclei ([3]; LBH589 alone): 2%
percentage of pyknotic nuclei [4, 14]: over 10%
apoptotic nuclei ([4]; LBH589 alone): 4%
HDAC4 nuclear localization ([5]; LBH589 added prior to IR 3 Gy): markedly limited HDAC4 nuclear localization
HDAC4 staining / localization ([5]; LBH589 alone): background HDAC4 staining in the cytoplasm and nucleus
HDAC4 nuclear localization [6]: A similar effect was seen
caspase3 cleavage, increase with LBH589 prior to IR [7, 15]: not as prominent
caspase3 cleavage ([7]; treatment with 25 nM LBH589): increase in caspase3 cleavage was evident
cells with γ-H2AX nuclear foci at 24 hours ([8]; 25 nM LBH589 alone): < 5%
residual γ-H2AX foci at 24 hours ([8]; 25 nM LBH589 prior to IR 3 Gy): 60%
duration of γ-H2AX foci after IR ([8]; LBH589 added 18 hours prior to IR 3 Gy): up to 24 hours
γ-H2AX foci ([8]; LBH589 alone for 20 hours): modest increase in γ-H2AX foci
number of apoptotic cells ([9]; 25 nM LBH589 18 hrs prior to 3 Gy, 20 hours later, control 6%): 25%
number of apoptotic cells ([9]; LBH589 alone 25 nM): only a minimal increase
colony survival compared to untreated cells ([10]; LBH589 1 hour and 18 hours prior to IR (0-6 Gy), 10 days proliferation): synergistic decrease in colony survival
plating efficiency ([10]; LBH589 alone for 1 hour, compared to the control): no reduced plating efficiency
plating efficiency ([10]; LBH589 alone for 18 hours): significantly reduced plating efficiency
signs of toxicity as monitored by weight loss and mobility [11]: minimal signs of toxicity
number of apoptotic cells ([12]; 25 nM LBH589 18 hrs prior to 3 Gy, 20 hours later, control 7%): 30%
number of apoptotic cells ([12]; LBH589 alone 25 nM): only a minimal increase
caspase3 cleavage [13, 15]: increased levels of caspase3 cleavage
caspase3 cleavage ([13]; treatment with 25 nM LBH589): increase in caspase3 cleavage was evident
